For assay [1], the target named is PTmAb0011. Description: BIAcore affinity to PTmAb0011. Type of assay: binding, mouse. The following applies: read-out: PTmAb BIAcore KD^Rel (μM) PTmAb0011. An excerpt:
(§1) This involved a DNA sub-cloning transfer from the major coat protein (gVIIIp) filamentous phage display vector to a lower copy number minor phage coat protein (gIIIp) display vector with a random PCR step. […] Included in the tables are ranking orders and also BIAcore affinities where available.
(§2) Thus indicating the importance of correct presentation of the peptides of the present invention to adopt a shape which closely resembles the native target in the context of the whole IgE molecule. [drawing]

The test system of assay [2] is PTmAb0011. The assay can be described thus: Phage display ranking of peptide ligands for PTmAb0011. The format is binding, mouse. Conditions: primary phage display biopannings (Table 7).
Excerpt: (§3) Phage display libraries were used to map the binding sites of the monoclonal antibodies using three different phage libraries, displaying either the XCX15, XCX10 or XAX10 peptide sequence (where X is any amino acid) at the N-terminus of the phage gVIIIp. Tables 6 and 7 show the results of selecting for peptide ligands with the anti human IgE monoclonal antibodies […]. […]
as §1

Assay [3] addresses PTmAb0005. Description: BIAcore affinity to PTmAb0005. The format is binding. Conditions: read-out: PTmAb BIAcore KD^Rel (μM) PTmAb0005.
Excerpt: as §1, §2
Background: In SPR one partner is held on a chip, and binding of the other changes the refractive index at the surface.

Assay [4] concerns PTmAb0005. The assay can be described thus: Phage display ranking of peptide ligands for PTmAb0005. Type of assay: binding. The following applies: for Rank (ECL) PTmAb0005: primary phage display biopannings (Table 6). On the procedure: as §3
This was performed by introducing random mutations by PCR mutagenesis and sub-cloning into the Fuse 5 vector for minor filamentous phage protein gIIIp display. These, and other results, confirmed the importance of the amino acids within IgEC67 which aligned with the Cε2 epitope. […] Mutations in other sites had little effect on the affinity to PTmAb0005.
as §1

Positions of bridges follow the written chain, without caps; N, C: chain ends. Residues, ends and D or L forms follow the SMILES beside them. No end group written: not given here.

In the case of `CC[C@H](C)[C@H](NC(=O)[C@@H]1CSSC[C@H](NC(=O)[C@@H](N)CCCNC(=N)N)C(=O)N[C@@H](CCC(=O)O)C(=O)N[C@@H](CCC(=O)O)C(=O)N[C@@H](Cc2c[nH]c3ccccc23)C(=O)N[C@@H](CC(C)C)C(=O)N1)C(=O)N1CCC[C@H]1C(=O)N1CCC[C@H]1C(=O)N[C@@H](C)C(=O)N1CCC[C@H]1C(=O)N[C@@H](C)C(=O)N[C@@H](Cc1ccccc1)C(=O)N[C@@H](C)C(=O)N1CCC[C@H]1C(=O)N1CCC[C@H]1C(=O)O` [EEC21/19] (H-RCEEWLCIPPAPAFAPP-OH; disulfide 2-7), the figures for the Kd on PTmAb0011 [1] and at PTmAb0005 [3] were 27.8 µM and 14.9 µM, respectively. Besides, in the assay on PTmAb0011 [2], the “Rank (ECL) PTmAb0011” value amounted to 3.
Turning to `CC[C@H](C)[C@@H]1NC(=O)[C@H](CCSC)NC(=O)[C@H](CCC(=O)O)NC(=O)[C@H](CO)NC(=O)CNC(=O)CNC(=O)[C@H](CC(C)C)NC(=O)[C@H](Cc2c[nH]c3ccccc23)NC(=O)[C@H](C(C)C)NC(=O)[C@H](CCC(=O)O)NC(=O)[C@H](CCCNC(=N)N)NC(=O)[C@@H](NC(=O)[C@@H](N)CO)CSSC[C@@H](C(=O)N[C@@H](CCC(=O)O)C(=O)O)NC(=O)[C@H](CC(=O)O)NC(=O)[C@H](CCSC)NC1=O` [EEC39/50/129] (H-SCREVWLGGSEMIMDCE-OH; disulfide 2-16), the Kd (commonly the free concentration of one partner at which half of the binding sites on the other are occupied at equilibrium, for simple one-to-one binding) is 2.4 µM on PTmAb0011 [1] and > 1000 µM on PTmAb0005 [3]. Further, the “Rank (ECL) PTmAb0011” value with PTmAb0011 [2] is reported as 1611.
As for `CC(C)C[C@@H]1NC(=O)[C@H](CC(=O)O)NC(=O)CNC(=O)[C@H](CCC(=O)O)NC(=O)[C@H](CCCNC(=N)N)NC(=O)[C@@H]2CCCN2C(=O)[C@H](Cc2ccccc2)NC(=O)[C@H](C)NC(=O)[C@@H]2CCCN2C(=O)[C@@H](NC(=O)[C@@H](N)CO)CSSC[C@@H](C(=O)N[C@@H](C)C(=O)N2CCC[C@H]2C(=O)N2CCC[C@H]2C(=O)N[C@H](C(=O)N[C@H](C(=O)O)C(C)C)[C@@H](C)O)NC1=O` [EEC131] (H-SCPAFPREGDLCAPPTV-OH; disulfide 2-12), the Kd at PTmAb0011 [1] is 42 µM; at PTmAb0005 [3], > 1000 µM. In addition, the “Rank (ECL) PTmAb0011” value in the assay with PTmAb0011 [2] came to 910.
Regarding `CSCC[C@H](NC(=O)[C@@H](NC(=O)[C@H](Cc1ccccc1)NC(=O)[C@H](CCC(N)=O)NC(=O)[C@H](CCCNC(=N)N)NC(=O)[C@H](CS)NC(=O)[C@@H](N)CCC(N)=O)C(C)C)C(=O)N[C@@H](CC(N)=O)C(=O)N[C@@H](CCC(N)=O)C(=O)N[C@@H](CO)C(=O)N[C@@H](CCC(=O)O)C(=O)N[C@@H](CCCCN)C(=O)N[C@@H](CCC(=O)O)C(=O)N[C@@H](Cc1ccccc1)C(=O)NCC(=O)N[C@@H](CCC(N)=O)C(=O)N[C@@H](CS)C(=O)O` [IgEC56] (H-QCRQFVMNQSEKEFGQC-OH), the Kd at PTmAb0011 [1] was > 1000 µM; on PTmAb0005 [3], 60 µM. Besides, in the assay on PTmAb0005 [4], the “Rank (ECL) PTmAb0005” value is 0.
For the compound `CC[C@H](C)[C@H](NC(=O)[C@@H]1CCCN1C(=O)[C@H](CC(C)C)NC(=O)CNC(=O)[C@H](CCCNC(=N)N)NC(=O)[C@H](CC(N)=O)NC(=O)[C@@H]1CCCN1C(=O)[C@H](CC(=O)O)NC(=O)[C@H](C)NC(=O)[C@@H]1CCCN1C(=O)[C@H](CO)NC(=O)[C@H](CC(=O)O)NC(=O)[C@H](CO)NC(=O)[C@H](CCSC)NC(=O)[C@H](CS)NC(=O)[C@@H](N)CS)C(=O)N[C@@H](Cc1c[nH]c2ccccc12)C(=O)O` [IgEC66] (H-CCMSDSPADPNRGLPIW-OH), the Kd at PTmAb0011 [1] and on PTmAb0005 [3] was > 600 µM each time. Besides, the “Rank (ECL) PTmAb0005” value with PTmAb0005 [4] is recorded as 0.
For `CSCC[C@@H]1NC(=O)[C@H](Cc2ccccc2)NC(=O)[C@@H](N)CSSC[C@@H](C(=O)N2CCC[C@H]2C(=O)N[C@@H](CCCNC(=N)N)C(=O)N[C@@H](CCC(=O)O)C(=O)O)NC(=O)[C@H](CC(C)C)NC(=O)[C@H](CCC(=O)O)NC(=O)[C@H](CC(C)C)NC(=O)[C@H](CC(=O)O)NC(=O)[C@H](C)NC(=O)[C@H](CC(C)C)NC(=O)[C@H](CCC(N)=O)NC(=O)[C@H](CCCCN)NC(=O)[C@H](CC(N)=O)NC1=O` [IgEC67] (H-CFMNKQLADLELCPRE-OH; disulfide 1-13), the results for the Kd on PTmAb0011 [1] and on PTmAb0005 [3] were 4.8 µM and 0.1 µM, respectively. The “binding / affinity to PTmAb0005” value with PTmAb0005 [4] (IgEC67 and its mutants, gIIIp display) is “highest affinity”. For the same compound, the “Rank (ECL) PTmAb0005” value with PTmAb0005 [4] stood at 243.
On to `CC(C)[C@H](NC(=O)[C@H](CC(=O)O)NC(=O)[C@H](CO)NC(=O)[C@@H]1CSSC[C@H](NC(=O)[C@@H](N)CO)C(=O)N[C@@H](C)C(=O)N[C@@H](Cc2ccc(O)cc2)C(=O)N[C@@H]([C@@H](C)O)C(=O)N[C@@H](C)C(=O)N[C@@H](CCC(N)=O)C(=O)N[C@@H](CCCNC(=N)N)C(=O)N[C@@H](CCC(N)=O)C(=O)N1)C(=O)N1CCC[C@H]1C(=O)N[C@@H](CC(N)=O)C(=O)N1CCC[C@H]1C(=O)NCC(=O)O` [IgEC69] (H-SCAYTAQRQCSDVPNPG-OH; disulfide 2-10), for which the results for the dissociation constant (Kd) at PTmAb0011 [1] and at PTmAb0005 [3] were 6.4 µM and 6.6 µM, respectively. Besides, the “Rank (ECL) PTmAb0005” value in the assay on PTmAb0005 [4] is 11.
As to `CC[C@H](C)[C@H](NC(=O)CNC(=O)[C@@H]1CCCN1C(=O)[C@H](CCC(N)=O)NC(=O)[C@H](Cc1c[nH]cn1)NC(=O)[C@@H]1CCCN1C(=O)[C@@H](NC(=O)[C@H](CC(=O)O)NC(=O)[C@H](CO)NC(=O)[C@H](CCC(N)=O)NC(=O)[C@H](CS)NC(=O)[C@@H](N)CS)C(C)C)C(=O)N[C@@H](CC(N)=O)C(=O)N[C@@H](CC(=O)O)C(=O)N[C@@H](CC(C)C)C(=O)N[C@@H](Cc1c[nH]cn1)C(=O)N[C@H](C(=O)O)C(C)C` [IgEC73] (H-CCQSDVPHQPGINDLHV-OH), the Kd at PTmAb0011 [1] and at PTmAb0005 [3] was > 600 µM throughout. The “Rank (ECL) PTmAb0005” value in the assay on PTmAb0005 [4] amounted to 0.
`CSCC[C@H](NC(=O)[C@H](CC(N)=O)NC(=O)[C@@H](NC(=O)[C@@H](NC(=O)[C@H](CCC(N)=O)NC(=O)[C@@H](NC(=O)[C@H](CC(=O)O)NC(=O)[C@@H](NC(=O)[C@@H](NC(=O)[C@H](CS)NC(=O)[C@@H](N)CS)C(C)C)[C@@H](C)O)C(C)C)[C@@H](C)O)[C@@H](C)O)C(=O)N[C@@H](CC(=O)O)C(=O)N[C@H](C(=O)N1CCC[C@H]1C(=O)N[C@@H](C)C(=O)NCC(=O)N[C@@H](CCC(N)=O)C(=O)O)C(C)C` [IgEC81] (H-CCVTDVQTTNMDVPAGQ-OH): the Kd at PTmAb0011 [1] was found to be 6.3 µM; at PTmAb0005 [3] it was 78 µM. Moreover, the “Rank (ECL) PTmAb0005” value in the assay with PTmAb0005 [4] was found to be 0.
For the compound DALDERAWRARA [EEB33], the Kd on PTmAb0011 [1] is 117 µM; at PTmAb0005 [3], > 600 µM. In the assay on PTmAb0011 [2], the “Rank (ECL) PTmAb0011” value was 15.
Regarding DCDWINPPDPPHFWKDT [EEC2/23/44/132], the Kd on PTmAb0011 [1] is 7 µM; on PTmAb0005 [3], > 600 µM. Also, the “Rank (ECL) PTmAb0011” value in the assay with PTmAb0011 [2] is recorded as 33.
On to GAMTAGQLSDLP [ESB25], for which the Kd at PTmAb0011 [1] is > 1000 µM; at PTmAb0005 [3], 60 µM. For the same compound, in the assay with PTmAb0005 [4], the “Rank (ECL) PTmAb0005” value is given as 0.
For KAGEQAMDMELR [ESB8] the same measures were > 1000 µM, 257 µM and 0.
Take VAGGQVVDRELK [ESB10/38]: the Kd was > 1000 µM at PTmAb0011 [1] and 139 µM on PTmAb0005 [3]. For the same compound, the “Rank (ECL) PTmAb0005” value in the assay with PTmAb0005 [4] is 0.
